Earlier results, collected in EP0426167A2, “Antitumor substance, process for preparing the same, and pharmaceutical composition containing the same” (MEIJI SEIKA KAISHA LTD., priority 1989, dated 1991).

Key:
P388 tumor cells [1] = settings: result in words; cited from earlier work
P388 tumor cells [2] = settings: result in words; cited from earlier work; remark: listed apart in the source
[3] = mouse, i.p.; cited from earlier work

Cc1cc2c(c3oc(C4(C)OC4C4OC4C)cc(=O)c13)C(=O)c1c(ccc(C3CC(C)(N(C)C)C(O)C(C)O3)c1O)C2=O (stereo not drawn) [SF2587 substance]
therapeutic effects in mice transplanted with P388 tumor cells (P388 tumor cells [1]): excellent therapeutic, effects | inhibitory activity on P388 tumor cells (P388 tumor cells [2]): considerable inhibitory activity | LD₅₀ [3]: 0.5 to 1 mg/kg
